Experimental data reported in patent US20230146455A1, “TREATMENT OF INFLAMMATORY DISEASES WITH PEPTIDES AND PHARMACEUTICAL COMPOSITIONS” (Yuyu Pharma, Inc., priority 2020, published 2023).
Several values for one entry are separate records, joined by “and”; a condition that tells them apart may be missing. Identical values can stand only once. Where a SMILES comes first, the peptide text is derived from it. [ ]: non-standard residue; d: D form. Hyp = O=C(O)[C@@H]1C[C@@H](O)CN1

System: human PBMCs
Assay: PBMC cell counts (total, live, viability; trypan blue, Countess) with and without LPS and test articles (Example 9)
Format: cell-based
Experimental: Treatment Human PBMCs were pretreated with YY-101, YDE-011 and YDE-043 or reference compound; Xiidra® at various concentration (ranging from 1 nM to 100 uM) for 2 h before stimulation. An equal volume of 0.5% DMSO was used as a vehicle control. Then, the cells were treated with LPS at 5 ug/ml. The supernatants from treated cells were harvested at 24 h and placed in a 96 well for Luminex cytokine & chemokine profiling using a Luminex 200 multiplex assay (Luminex; R&D system, USA).
The main study arm with triplicate wells per group in a 24-well plate: • 1. Blank • 2. PBMC: 0.5% DMSO • 3. PBMC+LPS (5 ug/ml) • 4. PBMC+YY-101 100 uM • 5. PBMC+YY-101 10 uM • 6. PBMC+YY-101 1 uM • 7. PBMC+YY-101 0.1 uM • 8. PBMC+YY-101 0.01 uM • 9. PBMC+LPS (5 ug/ml)+Xiidra®100 uM • 10. PBMC+LPS (5 ug/ml)+Xiidra® 10 uM • 11. PBMC+LPS (5 ug/ml)+Xiidra® 1 uM • 12. PBMC+LPS (5 ug/ml)+Xiidra®0.1 uM • 13. PBMC+LPS (5 ug/ml)+Xiidra®0.01 uM • 14. PBMC+LPS (5 ug/ml)+Xiidra®0.001 uM • 15. PBMC+LPS (5 ug/ml)+YY-101 100 uM • 16. PBMC+LPS (5 ug/ml)+YY-101 10 uM • 17. PBMC+LPS (5 ug/ml)+YY-101 1 uM • 18. PBMC+LPS (5 ug/ml)+YY-101 0.1 uM • 19. PBMC+LPS (5 ug/ml)+YY-101 0.01 uM • 20. PBMC+LPS (5 ug/ml)+YY-101 0.001 uM • 21. PBMC+LPS (5 ug/ml)+YDE-011 100 uM • 22. PBMC+LPS (5 ug/ml)+YDE-011 10 uM • 23. PBMC+LPS (5 ug/ml)+YDE-011 1 uM • 24. PBMC+LPS (5 ug/ml)+YDE-011 0.1 uM • 25. PBMC+LPS (5 ug/ml)+YDE-011 0.01 uM • 26. PBMC+LPS (5 ug/ml)+YDE-011 0.001 uM • 27. PBMC+LPS (5 ug/ml)+YDE-043 100 uM • 28. PBMC+LPS (5 ug/ml)+YDE-043 10 uM • 29. PBMC+LPS (5 ug/ml)+YDE-043 1 uM • 30. PBMC+LPS (5 ug/ml)+YDE-043 0.1 uM • 31. PBMC+LPS (5 ug/ml)+YDE-043 0.01 uM • 32. PBMC+LPS (5 ug/ml)+YDE-043 0.001 uM
The number of PBMCs was measured after 24 hr of treatment. The culture both and trypan blue were diluted 1:1 and 10 ul was added to Countess cell counting chamber (Thermo fisher, USA). The number of PBMCs was measured using a Countess automated cell counter (Thermo fisher, USA).

[1] = PBMC + LPS(5 ug/ml) + compound 0.001 uM, 24 hr
[2] = PBMC + LPS(5 ug/ml) + compound 0.01 uM, 24 hr
[3] = PBMC + LPS(5 ug/ml) + compound 0.1 uM, 24 hr
[4] = PBMC + LPS(5 ug/ml) + compound 1 uM, 24 hr
[5] = PBMC + LPS(5 ug/ml) + compound 10 uM, 24 hr
[6] = PBMC + LPS(5 ug/ml) + compound 100 uM, 24 hr
[7] = PBMC + LPS(5 ug/ml) + test article 0.001 uM, Mean
[8] = PBMC + LPS(5 ug/ml) + test article 0.001 uM, single replicates
[9] = PBMC + LPS(5 ug/ml) + test article 0.01 uM, Mean
[10] = PBMC + LPS(5 ug/ml) + test article 0.01 uM, single replicates
[11] = PBMC + LPS(5 ug/ml) + test article 0.1 uM, Mean
[12] = PBMC + LPS(5 ug/ml) + test article 0.1 uM, single replicates
[13] = PBMC + LPS(5 ug/ml) + test article 1 uM, Mean
[14] = PBMC + LPS(5 ug/ml) + test article 1 uM, single replicates
[15] = PBMC + LPS(5 ug/ml) + test article 10 uM, Mean
[16] = PBMC + LPS(5 ug/ml) + test article 10 uM, single replicates

SMILES: CC(C)C[C@H](NC(=O)CNC(=O)[C@H](CC(C)C)NC(=O)[C@H](CCC(N)=O)NC(=O)CNC(=O)[C@@H]1C[C@@H](O)CN1)C(=O)N[C@@H](C)C(=O)NCC(=O)N1CCC[C@H]1C(=O)N[C@@H](CCCCN)C(=O)O [YDE-011] (H-[Hyp]GQLGLAGPK-OH)
- Live cell [1]: 5.4 ± 0.4 10^5/ml
- Total cell [1]: 6.3 ± 0.2 10^5/ml
- Live cell [2]: 5.9 ± 0.4 10^5/ml
- Total cell [2]: 7.3 ± 0.4 10^5/ml
- Live cell [3]: 5.8 ± 0.5 10^5/ml
- Total cell [3]: 7.1 ± 0.7 10^5/ml
- Live cell [4]: 5.0 ± 0.2 10^5/ml
- Total cell [4]: 6.4 ± 0.3 10^5/ml
- Live cell [5]: 5.3 ± 0.3 10^5/ml
- Total cell [5]: 6.0 ± 0.4 10^5/ml
- Live cell [6]: 6.1 ± 0.0 10^5/ml
- Total cell [6]: 8.2 ± 0.4 10^5/ml
- Live cell [7]: 5.4 10^5/ml
- Live cell (10^5/ml) [7]: 5.4 10^5/ml
- Live cell, Mean [7]: 5.4 10^5/ml
- Live cell (PBMC + LPS(5 ug/ml) + test article 0.001 uM, individual replicates): 4.5 10^5/ml and 5.8 10^5/ml (2×)
- Live cell (PBMC + LPS(5 ug/ml) + test article 0.001 uM, individual replicates (1st, 2nd, 3rd)): 4.5 10^5/ml and 5.8 10^5/ml (2×)
- Live cell [8]: 4.5 10^5/ml and 5.8 10^5/ml (2×)
- Live cell (10^5/ml) [8]: 4.5 10^5/ml and 5.8 10^5/ml (2×)
- Live cell (PBMC + LPS(5 ug/ml) + test article 0.001 uM, single replicates (1st, 2nd, 3rd)): 4.5 10^5/ml and 5.8 10^5/ml (2×)
- Live cell [9]: 5.9 10^5/ml
- Live cell (10^5/ml) [9]: 5.9 10^5/ml
- Live cell, Mean [9]: 5.9 10^5/ml
- Live cell (PBMC + LPS(5 ug/ml) + test article 0.01 uM, individual replicates): 6.2 10^5/ml and 5.1 10^5/ml and 6.3 10^5/ml
- Live cell (PBMC + LPS(5 ug/ml) + test article 0.01 uM, individual replicates (1st, 2nd, 3rd)): 6.2 10^5/ml and 5.1 10^5/ml and 6.3 10^5/ml
- Live cell [10]: 6.3 10^5/ml and 6.2 10^5/ml and 5.1 10^5/ml
- Live cell (10^5/ml) [10]: 6.3 10^5/ml and 6.2 10^5/ml and 5.1 10^5/ml
- Live cell (PBMC + LPS(5 ug/ml) + test article 0.01 uM, single replicates (1st, 2nd, 3rd)): 6.2 10^5/ml and 5.1 10^5/ml and 6.3 10^5/ml
- Live cell [11]: 5.8 10^5/ml
- Live cell (10^5/ml) [11]: 5.8 10^5/ml
- Live cell, Mean [11]: 5.8 10^5/ml
- Live cell (PBMC + LPS(5 ug/ml) + test article 0.1 uM, individual replicates): 6.6 10^5/ml and 5.0 10^5/ml and 5.7 10^5/ml
- Live cell (PBMC + LPS(5 ug/ml) + test article 0.1 uM, individual replicates (1st, 2nd, 3rd)): 6.6 10^5/ml and 5.0 10^5/ml and 5.7 10^5/ml
- Live cell [12]: 6.6 10^5/ml and 5.0 10^5/ml and 5.7 10^5/ml
- Live cell (10^5/ml) [12]: 6.6 10^5/ml and 5.0 10^5/ml and 5.7 10^5/ml
- Live cell (PBMC + LPS(5 ug/ml) + test article 0.1 uM, single replicates (1st, 2nd, 3rd)): 6.6 10^5/ml and 5.0 10^5/ml and 5.7 10^5/ml
- Live cell [13]: 5.0 10^5/ml
- Live cell (10^5/ml) [13]: 5.0 10^5/ml
- Live cell, Mean [13]: 5.0 10^5/ml
- Live cell (PBMC + LPS(5 ug/ml) + test article 1 uM, individual replicates): 5.5 10^5/ml and 4.8 10^5/ml (2×)
- Live cell (PBMC + LPS(5 ug/ml) + test article 1 uM, individual replicates (1st, 2nd, 3rd)): 5.5 10^5/ml and 4.8 10^5/ml (2×)
- Live cell [14]: 5.5 10^5/ml and 4.8 10^5/ml (2×)
- Live cell (10^5/ml) [14]: 5.5 10^5/ml and 4.8 10^5/ml (2×)
- Live cell (PBMC + LPS(5 ug/ml) + test article 1 uM, single replicates (1st, 2nd, 3rd)): 5.5 10^5/ml and 4.8 10^5/ml (2×)
- Live cell [15]: 5.3 10^5/ml
- Live cell (10^5/ml) [15]: 5.3 10^5/ml
- Live cell, Mean [15]: 5.3 10^5/ml
- Live cell (PBMC + LPS(5 ug/ml) + test article 10 uM, individual replicates): 5.4 10^5/ml and 5.8 10^5/ml and 4.7 10^5/ml
- Live cell (PBMC + LPS(5 ug/ml) + test article 10 uM, individual replicates (1st, 2nd, 3rd)): 5.4 10^5/ml and 5.8 10^5/ml and 4.7 10^5/ml
- Live cell [16]: 5.4 10^5/ml and 5.8 10^5/ml and 4.7 10^5/ml
- Live cell (10^5/ml) [16]: 5.4 10^5/ml and 5.8 10^5/ml and 4.7 10^5/ml
